Values of other authors in patent US20130059872A1, “POLYMORPHS OF ALOGLIPTIN BENZOATE” (MAPI PHARMA LIMITED, priority 2010, published 2013).

Conditions: DSC data according to WO 2007/035372; recrystallization at 132° C., melt onset at 183° C.

Cn1c(=O)cc(N2CCC[C@@H](N)C2)n(Cc2ccccc2C#N)c1=O [amorphous form 1 of WO 2007/035372, alogliptin benzoate]
solid-state stability of the amorphous phase on heating: crystallized to crystalline form A during heating
